Measured values from the NIST ThermoML archive (doi:10.1021/je700026d).

Assay: xn = mol fraction of the nth substance listed
Settings: Liquid; for speed of sound: 100 kPa, Linear variable-path acoustic interferometer; for viscosity / mass density: 101.3 kPa; for viscosity: Capillary tube (Ostwald / Ubbelohde) method; for mass density: Pycnometric method

NC=O [formamide] + CC#N
Settings | mass density, 298.15 K [kg/m3] | mass density, 308.15 K [kg/m3] | mass density, 318.15 K [kg/m3] | speed of sound, 298.15 K [m/s] | viscosity, 298.15 K [mPa·s] | viscosity, 308.15 K [mPa·s] | viscosity, 318.15 K [mPa·s]
x1 = 0.0919 | 803.8 | 794.9 | 785.6 | 1277.7 | 0.402 | 0.366 | 0.339
x1 = 0.1856 | 832.8 | 824.1 | 815.8 | 1299.6 | 0.485 | 0.432 | 0.396
x1 = 0.2809 | 863.4 | 855.1 | 847.4 | 1322.8 | 0.593 | 0.522 | 0.472
x1 = 0.3779 | 895.8 | 887.4 | 879.9 | 1349.6 | 0.733 | 0.635 | 0.565
x1 = 0.4768 | 929.2 | 921.2 | 914 | 1380.8 | 0.921 | 0.786 | 0.687
x1 = 0.5775 | 965.2 | 956.6 | 950.7 | 1412.8 | 1.168 | 0.978 | 0.847
x1 = 0.6802 | 1002.9 | 994.4 | 989.4 | 1449 | 1.507 | 1.239 | 1.046
x1 = 0.7847 | 1042.6 | 1034.7 | 1029.3 | 1488.8 | 1.945 | 1.569 | 1.295
x1 = 0.8913 | 1085.1 | 1076.9 | 1071.6 | 1529.8 | 2.54 | 1.999 | 1.615
x1 = 1 | 1129.2 | 1120.5 | 1111.1 | 1591.3 | 3.302 | 2.542 | 2.001

NC=O [formamide] + COCCO
Settings | mass density, 298.15 K [kg/m3] | mass density, 308.15 K [kg/m3] | mass density, 318.15 K [kg/m3] | speed of sound, 298.15 K [m/s] | viscosity, 298.15 K [mPa·s] | viscosity, 308.15 K [mPa·s] | viscosity, 318.15 K [mPa·s]
x1 = 0.1581 | 977 | 969.1 | 963.5 | 1353.6 | 1.912 | 1.515 | 1.225
x1 = 0.2969 | 994.2 | 986.2 | 980.3 | 1373.7 | 2.291 | 1.759 | 1.394
x1 = 0.4199 | 1010.9 | 1002.8 | 996.5 | 1397.5 | 2.659 | 1.997 | 1.561
x1 = 0.5297 | 1027.6 | 1019.4 | 1012.8 | 1423.8 | 2.963 | 2.206 | 1.709
x1 = 0.6282 | 1044.1 | 1035.9 | 1029.1 | 1451.1 | 3.173 | 2.367 | 1.831
x1 = 0.7171 | 1060.2 | 1052.3 | 1045.3 | 1478.3 | 3.331 | 2.485 | 1.929
x1 = 0.7977 | 1076.7 | 1068.7 | 1061.5 | 1506 | 3.395 | 2.541 | 1.978
x1 = 0.8711 | 1093.8 | 1085.7 | 1078.1 | 1533.9 | 3.399 | 2.562 | 2.016
x1 = 0.9383 | 1111.1 | 1102.9 | 1094.6 | 1564.3 | 3.348 | 2.55 | 2.003
x1 = 1 | 1129.2 | 1120.5 | 1111.1 | 1591.3 | 3.302 | 2.542 | 2.001

NC=O [formamide] + C[S+](C)[O-]
Settings | mass density, 298.15 K [kg/m3] | mass density, 308.15 K [kg/m3] | mass density, 318.15 K [kg/m3] | speed of sound, 298.15 K [m/s] | viscosity, 298.15 K [mPa·s] | viscosity, 308.15 K [mPa·s] | viscosity, 318.15 K [mPa·s]
x1 = 0.1616 | 1099.3 | 1090.7 | 1082.7 | 1480.1 | 2.457 | 1.859 | 1.64
x1 = 0.3025 | 1102.8 | 1094.9 | 1087.3 | 1480.6 | 2.868 | 2.135 | 1.823
x1 = 0.4264 | 1106.3 | 1098.5 | 1090.9 | 1483.9 | 3.214 | 2.365 | 1.968
x1 = 0.5363 | 1109.5 | 1101.6 | 1093.9 | 1492.3 | 3.468 | 2.52 | 2.059
x1 = 0.6343 | 1112.6 | 1104.6 | 1096.7 | 1502.9 | 3.608 | 2.621 | 2.112
x1 = 0.7224 | 1115.8 | 1107.6 | 1099.5 | 1512.7 | 3.652 | 2.653 | 2.118
x1 = 0.8019 | 1119.1 | 1110.7 | 1102.3 | 1526.4 | 3.626 | 2.639 | 2.083
x1 = 0.874 | 1122.5 | 1113.9 | 1105.3 | 1543.7 | 3.54 | 2.613 | 2.054
x1 = 0.9398 | 1125.8 | 1117.2 | 1108.2 | 1561.2 | 3.426 | 2.571 | 2.021
x1 = 1 | 1129.2 | 1120.5 | 1111.1 | 1591.3 | 3.302 | 2.542 | 2.001
